Results as given in PubChem BioAssay AID1259411 (Chemical Carcinogenesis Research Information System (CCRIS), 2018).
The source made the active and inactive calls. How the calls were made is not given here.

Test system: rodent carcinogenicity bioassays, tumor incidence
Assay: CCRIS carcinogenicity studies
Outline: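 NCI-built, expert-reviewed records of carcinogenicity and related test outcomes (mutagenicity, tumor promotion/inhibition) compiled from published and report sources, historical span 1985-2011, not updated.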

CNc1nncc2ccccc12
carcinogen call (Species: MOUSE, Strain/Sex: SWISS/MALE,FEMALE, Route: ORAL, Dose: 0.125% IN WATER, Tumor Site: Type of Lesion: LUNG): active; positive | carcinogen call (Species: RAT, Strain/Sex: SPRAGUE-DAWLEY/MALE, Route: ORAL, Dose: 0, 0.035% IN DIET FOR 68-87 WK (STUDY DURATION: 87 WK)): inactive; negative | carcinogen call (Species: RAT, Strain/Sex: SPRAGUE-DAWLEY/MALE, Route: SUBCUTANEOUS, Dose: 0, 16.7 MG/KG 1/WK FOR 87 WK (STUDY DURATION: 87 WK)): inactive; negative | carcinogen call (Species: RAT, Strain/Sex: SPRAGUE-DAWLEY/MALE, Route: SUBCUTANEOUS, Dose: 0, 16.7 MG/KG 1/WK FOR 87 WK ADMINISTERED TO PARTIALLY HEPATECTOMIZED RATS (STUDY DURATION: 87 WK)): inactive; negative

CC1(C)[C@H](C(=O)O[C@H](C#N)c2cccc(Oc3ccccc3)c2)[C@@H]1C=C(Br)Br
carcinogen call (Species: MOUSE, Strain/Sex: C57BL/FEMALE, Route: INTRAGASTRIC, Dose: 0, 1, 4, 8 MG/KG IN ARACHIS OIL 5 D/WK FOR 104 WK (STUDY DURATION: 120 WK), Dose: 0, 1, 4, 8 MG/KG IN ARACHIS OIL 5 D/WK FOR 104 WK (STUDY DURATION: 120 WK)): inactive; negative | carcinogen call (Species: MOUSE, Strain/Sex: C57BL/MALE, Route: INTRAGASTRIC, Dose: 0, 1, 4, 8 MG/KG IN ARACHIS OIL 5 D/WK FOR 104 WK (STUDY DURATION: 120 WK), Dose: 0, 1, 4, 8 MG/KG IN ARACHIS OIL 5 D/WK FOR 104 WK (STUDY DURATION: 120 WK)): inactive; negative | carcinogen call (Species: MOUSE, Strain/Sex: SWISS/MALE, FEMALE, Route: DERMAL, Dose: 0, 1, 2, 4 MG/KG BW IN 200 µL ACETONE 3/WK FOR 32 WK (STUDY DURATION: 32 WK), Dose: 0, 1, 2, 4 MG/KG BW IN 200 µL ACETONE 3/WK FOR 32 WK (STUDY DURATION: 32 WK)): inactive; negative | carcinogen call (Species: Mouse, Strain/Sex: Crl:CD-1(ICR)BR/Female (50/Group), Route: Oral, Dose: 0, 10, 100, 1000, 2000 ppm in feed for 97 wk, Dose: 0, 10, 100, 1000, 2000 ppm in feed for 97 wk): inactive; negative | carcinogen call (Species: Mouse, Strain/Sex: Crl:CD-1(ICR)BR/Male (50/Group), Route: Oral, Dose: 0, 10, 100, 1000, 2000 ppm in feed for 97 wk, Dose: 0, 10, 100, 1000, 2000 ppm in feed for 97 wk): inactive; negative | carcinogen call (Species: RAT, Strain/Sex: BDVI/FEMALE, Route: INTRAGASTRIC, Dose: 0, 3, 6 MG/KG IN ARACHIS OIL 5 D/WK FOR 104 WK (STUDY DURATION: 120 WK), Dose: 0, 3, 6 MG/KG IN ARACHIS OIL 5 D/WK FOR 104 WK (STUDY DURATION: 120 WK), Tumor Site: Type of Lesion: THYROID: ADENOMA): active; positive | carcinogen call (Species: RAT, Strain/Sex: BDVI/MALE, Route: INTRAGASTRIC, Dose: 0, 3, 6 MG/KG IN ARACHIS OIL 5 D/WK FOR 104 WK (STUDY DURATION: 120 WK), Dose: 0, 3, 6 MG/KG IN ARACHIS OIL 5 D/WK FOR 104 WK (STUDY DURATION: 120 WK), Tumor Site: Type of Lesion: THYROID: ADENOMA): active; positive | carcinogen call (Species: Rat, Strain/Sex: Crl:CD(SD)BR/Female (50/Group), Route: Oral, Dose: 0, 25, 125, 500, 800 ppm in feed for 2 yr, Dose: 0, 25, 125, 500, 800 ppm in feed for 2 yr): inactive; negative | carcinogen call (Species: Rat, Strain/Sex: Crl:CD(SD)BR/Male (50/Group), Route: Oral, Dose: 0, 25, 125, 500, 800 ppm in feed for 2 yr, Dose: 0, 25, 125, 500, 800 ppm in feed for 2 yr): inactive; negative

Nc1ccn([C@H]2CC[C@@H](CO)O2)c(=O)n1
carcinogen call (Species: MOUSE, Strain/Sex: B6C3F1/FEMALE, Route: GAVAGE, Dose: 0, 500, 1000 MG/KG BW A DAY FOR 6 MO (STUDY DURATION: 6 MO), Dose: 0, 500, 1000 MG/KG BW A DAY FOR 6 MO (STUDY DURATION: 6 MO), Tumor Site: Type of Lesion: THYMUS: LYMPHOMA): active; positive | carcinogen call (Species: MOUSE, Strain/Sex: B6C3F1/FEMALE, Route: GAVAGE, Dose: 0, 500, 1000 MG/KG/D FOR 13 WK (STUDY DURATION: 13 WK), Dose: 0, 500, 1000 MG/KG/D FOR 13 WK (STUDY DURATION: 13 WK)): inactive; negative | carcinogen call (Species: MOUSE, Strain/Sex: B6C3F1/FEMALE, Route: GAVAGE, Dose: 0, 500, 1000 MG/KG/D FOR 13 WK FOLLOWED BY 4 WK OF RECOVERY (STUDY DURATION: 17 WK), Dose: 0, 500, 1000 MG/KG/D FOR 13 WK FOLLOWED BY 4 WK OF RECOVERY (STUDY DURATION: 17 WK)): inactive; negative | carcinogen call (Species: MOUSE, Strain/Sex: B6C3F1/FEMALE, Route: GAVAGE, Dose: 0, 500, 1000 MG/KG/D FOR 13 WK FOLLOWED BY 13 WK FOR RECOVERY (STUDY DURATION: 26 WK), Dose: 0, 500, 1000 MG/KG/D FOR 13 WK FOLLOWED BY 13 WK FOR RECOVERY (STUDY DURATION: 26 WK), Tumor Site: Type of Lesion: THYMUS: LYMPHOMA): active; positive | carcinogen call (Species: MOUSE, Strain/Sex: B6C3F1/FEMALE, Route: GAVAGE, Dose: 0, 1000 MG/KG BW A DAY FOR 3 MO FOLLOWED BY A 3-MO RECOVERY PERIOD (STUDY DURATION: 6 MO), Tumor Site: Type of Lesion: THYMUS: LYMPHOMA, SPLEEN: LYMPHOMA): active; positive | carcinogen call (Species: MOUSE, Strain/Sex: B6C3F1/MALE, Route: GAVAGE, Dose: 0, 500, 1000 MG/KG BW A DAY FOR 6 MO (STUDY DURATION: 6 MO), Dose: 0, 500, 1000 MG/KG BW A DAY FOR 6 MO (STUDY DURATION: 6 MO), Tumor Site: Type of Lesion: THYMUS: LYMPHOMA): active; positive | carcinogen call (Species: MOUSE, Strain/Sex: B6C3F1/MALE, Route: GAVAGE, Dose: 0, 500, 1000 MG/KG/D FOR 13 WK (STUDY DURATION: 13 WK), Dose: 0, 500, 1000 MG/KG/D FOR 13 WK (STUDY DURATION: 13 WK)): inactive; negative | carcinogen call (Species: MOUSE, Strain/Sex: B6C3F1/MALE, Route: GAVAGE, Dose: 0, 1000 MG/KG BW A DAY FOR 3 MO FOLLOWED BY A 3 MO RECOVERY PERIOD (STUDY DURATION: 6 MO), Tumor Site: Type of Lesion: THYMUS: LYMPHOMA): active; positive | carcinogen call (Species: MOUSE, Strain/Sex: NIH SWISS/FEMALE, Route: GAVAGE, Dose: 0, 500, 1000 MG/KG BW A DAY FOR 6 MO (STUDY DURATION: 6 MO), Dose: 0, 500, 1000 MG/KG BW A DAY FOR 6 MO (STUDY DURATION: 6 MO), Tumor Site: Type of Lesion: THYMUS: LYMPHOMA, SPLEEN: LYMPHOMA, LYMPH NODE: LYMPHOMA, Tumor Site: Type of Lesion: THYMUS: LYMPHOMA, SPLEEN: LYMPHOMA, LYMPH NODE: LYMPHOMA): active; positive | carcinogen call (Species: MOUSE, Strain/Sex: NIH SWISS/FEMALE, Route: GAVAGE, Dose: 0, 1000 MG/KG BW A DAY FOR 3 MO FOLLOWED BY A 3-MO RECOVERY PERIOD (STUDY DURATION: 6 MO), Tumor Site: Type of Lesion: THYMUS: LYMPHOMA, SPLEEN: LYMPHOMA, LYMPH NODE: LYMPHOMA, Tumor Site: Type of Lesion: THYMUS: LYMPHOMA, SPLEEN: LYMPHOMA, LYMPH NODE: LYMPHOMA): active; positive | carcinogen call (Species: MOUSE, Strain/Sex: NIH SWISS/MALE, Route: GAVAGE, Dose: 0, 500, 1000 MG/KG BW A DAY FOR 6 MO (STUDY DURATION: 6 MO), Dose: 0, 500, 1000 MG/KG BW A DAY FOR 6 MO (STUDY DURATION: 6 MO), Tumor Site: Type of Lesion: THYMUS: LYMPHOMA): active; positive | carcinogen call (Species: MOUSE, Strain/Sex: NIH SWISS/MALE, Route: GAVAGE, Dose: 0, 1000 MG/KG BW A DAY FOR 3 MO FOLLOWED BY A 3-MO RECOVERY PERIOD (STUDY DURATION: 6 MO), Tumor Site: Type of Lesion: THYMUS: LYMPHOMA): active; positive

CC(C)C=O
carcinogen call (Species: MOUSE, Strain/Sex: B6C3F1/FEMALE, Route: INHALATION, Dose: 0, 500, 1000, 2000 PPM 6 HR/D 5 D/WK FOR 105 WK (STUDY DURATION: 105 WK), Dose: 0, 500, 1000, 2000 PPM 6 HR/D 5 D/WK FOR 105 WK (STUDY DURATION: 105 WK)): inactive; negative | carcinogen call (Species: MOUSE, Strain/Sex: B6C3F1/MALE, Route: INHALATION, Dose: 0, 500, 1000, 2000 PPM 6 HR/D 5 D/WK FOR 105 WK (STUDY DURATION: 105 WK), Dose: 0, 500, 1000, 2000 PPM 6 HR/D 5 D/WK FOR 105 WK (STUDY DURATION: 105 WK)): inactive; negative | carcinogen call (Species: RAT, Strain/Sex: F344/FEMALE, Route: INHALATION, Dose: 0, 500, 1000, 2000 PPM 6 HR/D 5 D/WK FOR 105 WK (STUDY DURATION: 105 WK), Dose: 0, 500, 1000, 2000 PPM 6 HR/D 5 D/WK FOR 105 WK (STUDY DURATION: 105 WK)): inactive; negative | carcinogen call (Species: RAT, Strain/Sex: F344/MALE, Route: INHALATION, Dose: 0, 500, 1000, 2000 PPM 6 HR/D 5 D/WK FOR 105 WK (STUDY DURATION: 105 WK), Dose: 0, 500, 1000, 2000 PPM 6 HR/D 5 D/WK FOR 105 WK (STUDY DURATION: 105 WK)): inactive; negative
